Source: ChEMBL document CHEMBL1132675, “New pyrrole derivatives as antimycobacterial agents analogs of BM212” (1999)
Converted amounts (≈) assume the structure as drawn. The source made the active and inactive calls. The calls are words filed in the database; no cut-off is given here.

Key:
Mycobacterium avium = test: In vitro antibacterial activity against Mycobacterium avium 103317; assay type: functional
Mycobacterium gordonae [1] = test: In vitro antibacterial activity against Mycobacterium gordonae 6427; assay type: functional
Mycobacterium marinum = test: In vitro antibacterial activity against Mycobacterium marinum 6423; assay type: functional
[2] = system: Mycobacterium tuberculosis; test: In vitro antibacterial activity against Mycobacterium tuberculosis 103471; assay type: functional
[3] = system: Mycolicibacterium smegmatis; test: In vitro antibacterial activity against Mycobacterium smegmatis 103599; assay type: functional
Vero = test: In vitro cytotoxicity against vero cells; assay type: functional, Chlorocebus sabaeus
Candida = test: Compound was tested for activity against Candida sp; Inactive; assay type: functional, organism-based
Candida albicans = test: Compound was tested for activity against Candida albicans; Inactive; assay type: functional, organism-based
Mycobacterium gordonae [4] = test: In vitro antibacterial activity agains Mycobacterium gordonae 6427; assay type: functional

SMILES	MIC (Mycobacterium avium) [µg/mL]	MIC (Mycobacterium gordonae [1]) [µg/mL]	MIC (Mycobacterium marinum) [µg/mL]	MIC [2] [µg/mL]	MIC [3] [µg/mL]	MTD50 (Vero) [µg/mL]	MIC (Candida)	MIC (Candida albicans)	MIC (Mycobacterium gordonae [4]) [µg/mL]
NNC(=O)c1ccncc1 [ISONIAZID]	32 (≈ 233 µM)	32 (≈ 233 µM)	16 (≈ 117 µM)	0.25 (≈ 1.82 µM)	64 (≈ 467 µM)	32			
CN[C@@H]1[C@H](O[C@H]2[C@H](O[C@H]3[C@H](O)[C@@H](O)[C@H](N=C(N)N)[C@@H](O)[C@@H]3N=C(N)N)O[C@@H](C)[C@]2(O)C=O)O[C@@H](CO)[C@H](O)[C@H]1O [STREPTOMYCIN]	8 (≈ 13.8 µM)	16 (≈ 27.5 µM)	32 (≈ 55 µM)	0.5 (≈ 0.86 µM)	8 (≈ 13.8 µM)	>64			
Cc1c(CN2CCN(C)CC2)cc(-c2ccccc2)n1-c1ccc(Cl)cc1	16 (≈ 42.1 µM)	8 (≈ 21.1 µM)	1 (≈ 2.63 µM)	4 (≈ 10.5 µM)	8 (≈ 21.1 µM)	4	inactive	inactive	
CO[C@H]1/C=C/O[C@@]2(C)Oc3c(C)c(O)c4c(O)c(c(/C=N/N5CCN(C)CC5)c(O)c4c3C2=O)NC(=O)/C(C)=C\C=C\[C@H](C)[C@H](O)[C@@H](C)[C@@H](O)[C@@H](C)[C@H](OC(C)=O)[C@@H]1C [RIFAMPIN]	0.3 (≈ 0.365 µM)	0.6 (≈ 0.729 µM)	0.6 (≈ 0.729 µM)	0.3 (≈ 0.365 µM)	32 (≈ 38.9 µM)	64			
Cc1c(CN2CCN(C)CC2)cc(-c2ccc(Cl)cc2)n1-c1ccccc1	16 (≈ 42.1 µM)	16 (≈ 42.1 µM)	16 (≈ 42.1 µM)	4 (≈ 10.5 µM)	8 (≈ 21.1 µM)	4	inactive	inactive	
Cc1c(CN2CCN(C)CC2)cc(-c2ccc(Cl)cc2)n1-c1ccc(Cl)cc1	0.4 (≈ 0.965 µM)		100 (≈ 241 µM)	0.7 (≈ 1.69 µM)	25 (≈ 60.3 µM)	4			> 100
Cc1c(CN2CCSCC2)cc(-c2ccc(Cl)cc2)n1-c1ccccc1	> 16	> 16	> 16	2 (≈ 5.22 µM)	> 16	4	inactive	inactive	
Cc1c(CN2CCSCC2)cc(-c2ccccc2)n1-c1ccc(Cl)cc1	16 (≈ 41.8 µM)	> 16	8 (≈ 20.9 µM)	2 (≈ 5.22 µM)	16 (≈ 41.8 µM)	8	inactive	inactive	
Cc1c(CN2CCSCC2)cc(-c2ccc(Cl)cc2)n1-c1ccc(Cl)cc1	> 16	> 16	> 16	4 (≈ 9.58 µM)	> 16	32	inactive	inactive	
